The NIST ThermoML archive (doi:10.1021/je200721d)
Numbers after ± are expanded uncertainties.

Assay: xn = mol fraction of the nth substance listed
Conditions: Liquid, Vibrating tube method

CCCCCCCCCC [decane] + CCCCCC
Conditions | mass density [kg/m3]
313.08 K, 1000 kPa, x2 = 0.8991 | 654.3 ± 0.27
313.08 K, 2000 kPa, x2 = 0.8991 | 655.28 ± 0.28
313.08 K, 3000 kPa, x2 = 0.8991 | 656.28 ± 0.29
313.08 K, 4000 kPa, x2 = 0.8991 | 657.3 ± 0.3
313.08 K, 5000 kPa, x2 = 0.8991 | 658.33 ± 0.31
313.08 K, 6000 kPa, x2 = 0.8991 | 659.37 ± 0.31
313.08 K, 7000 kPa, x2 = 0.8991 | 660.42 ± 0.32
313.08 K, 8000 kPa, x2 = 0.8991 | 661.47 ± 0.33
313.08 K, 9000 kPa, x2 = 0.8991 | 662.52 ± 0.34
313.08 K, 10000 kPa, x2 = 0.8991 | 663.56 ± 0.35
313.08 K, 11000 kPa, x2 = 0.8991 | 664.61 ± 0.36
313.08 K, 12000 kPa, x2 = 0.8991 | 665.63 ± 0.37
313.08 K, 13000 kPa, x2 = 0.8991 | 666.66 ± 0.38
313.08 K, 14000 kPa, x2 = 0.8991 | 667.66 ± 0.39
313.08 K, 15000 kPa, x2 = 0.8991 | 668.63 ± 0.4
313.08 K, 16000 kPa, x2 = 0.8991 | 669.61 ± 0.41
313.08 K, 17000 kPa, x2 = 0.8991 | 670.54 ± 0.41
313.08 K, 18000 kPa, x2 = 0.8991 | 671.45 ± 0.42
313.08 K, 19000 kPa, x2 = 0.8991 | 672.34 ± 0.43
313.08 K, 20000 kPa, x2 = 0.8991 | 673.21 ± 0.44
313.08 K, 21000 kPa, x2 = 0.8991 | 674.04 ± 0.45
313.08 K, 22000 kPa, x2 = 0.8991 | 674.91 ± 0.46
313.08 K, 23000 kPa, x2 = 0.8991 | 675.69 ± 0.47
313.08 K, 24000 kPa, x2 = 0.8991 | 676.48 ± 0.48
313.08 K, 25000 kPa, x2 = 0.8991 | 677.31 ± 0.49
313.17 K, 1000 kPa, x2 = 0.2185 | 704.92 ± 0.26
313.17 K, 2000 kPa, x2 = 0.2185 | 705.74 ± 0.26
313.17 K, 3000 kPa, x2 = 0.2185 | 706.66 ± 0.27
313.17 K, 4000 kPa, x2 = 0.2185 | 707.53 ± 0.27
313.17 K, 5000 kPa, x2 = 0.2185 | 708.39 ± 0.28
313.17 K, 6000 kPa, x2 = 0.2185 | 709.25 ± 0.29
313.17 K, 7000 kPa, x2 = 0.2185 | 710.11 ± 0.29
313.17 K, 8000 kPa, x2 = 0.2185 | 710.96 ± 0.3
313.17 K, 9000 kPa, x2 = 0.2185 | 711.8 ± 0.31
313.17 K, 10000 kPa, x2 = 0.2185 | 712.63 ± 0.32
313.17 K, 10990 kPa, x2 = 0.2185 | 713.46 ± 0.32
313.17 K, 12000 kPa, x2 = 0.2185 | 714.27 ± 0.33
313.17 K, 13000 kPa, x2 = 0.2185 | 715.05 ± 0.34
313.17 K, 14000 kPa, x2 = 0.2185 | 715.84 ± 0.35
313.17 K, 15000 kPa, x2 = 0.2185 | 716.63 ± 0.35
313.17 K, 16000 kPa, x2 = 0.2185 | 717.4 ± 0.36
313.17 K, 17000 kPa, x2 = 0.2185 | 718.15 ± 0.37
313.17 K, 18000 kPa, x2 = 0.2185 | 718.88 ± 0.38
313.17 K, 19000 kPa, x2 = 0.2185 | 719.62 ± 0.38
313.17 K, 20000 kPa, x2 = 0.2185 | 720.34 ± 0.39
313.17 K, 21000 kPa, x2 = 0.2185 | 721.06 ± 0.4
313.17 K, 22000 kPa, x2 = 0.2185 | 721.76 ± 0.41
313.17 K, 23000 kPa, x2 = 0.2185 | 722.46 ± 0.42
313.17 K, 24000 kPa, x2 = 0.2185 | 723.13 ± 0.42
313.17 K, 25000 kPa, x2 = 0.2185 | 723.78 ± 0.43
313.18 K, 1000 kPa, x2 = 0.0456 | 713.33 ± 0.25
313.18 K, 1000 kPa, x2 = 0.7524 | 668.32 ± 0.27
313.18 K, 2000 kPa, x2 = 0.0456 | 714.22 ± 0.26
313.18 K, 2000 kPa, x2 = 0.7524 | 669.4 ± 0.27
313.18 K, 3000 kPa, x2 = 0.0456 | 715.11 ± 0.26
313.18 K, 3000 kPa, x2 = 0.7524 | 670.46 ± 0.28
313.18 K, 4000 kPa, x2 = 0.0456 | 715.98 ± 0.27
313.18 K, 4000 kPa, x2 = 0.7524 | 671.5 ± 0.29
313.18 K, 5000 kPa, x2 = 0.0456 | 716.84 ± 0.28
313.18 K, 5000 kPa, x2 = 0.7524 | 672.55 ± 0.3
313.18 K, 6000 kPa, x2 = 0.0456 | 717.69 ± 0.28
313.18 K, 6000 kPa, x2 = 0.7524 | 673.61 ± 0.31
313.18 K, 7000 kPa, x2 = 0.0456 | 718.53 ± 0.29
313.18 K, 7000 kPa, x2 = 0.7524 | 674.58 ± 0.31
313.18 K, 8000 kPa, x2 = 0.0456 | 719.34 ± 0.3
313.18 K, 8000 kPa, x2 = 0.7524 | 675.56 ± 0.32
313.18 K, 9000 kPa, x2 = 0.0456 | 720.15 ± 0.3
313.18 K, 9000 kPa, x2 = 0.7524 | 676.55 ± 0.33
313.18 K, 10000 kPa, x2 = 0.0456 | 720.95 ± 0.31
313.18 K, 10000 kPa, x2 = 0.7524 | 677.5 ± 0.34
313.18 K, 10990 kPa, x2 = 0.0456 | 721.74 ± 0.32
313.18 K, 10990 kPa, x2 = 0.7524 | 678.44 ± 0.35
313.18 K, 12000 kPa, x2 = 0.0456 | 722.51 ± 0.32
313.18 K, 12000 kPa, x2 = 0.7524 | 679.36 ± 0.36
313.18 K, 13000 kPa, x2 = 0.0456 | 723.28 ± 0.33
313.18 K, 13000 kPa, x2 = 0.7524 | 680.27 ± 0.37
313.18 K, 14000 kPa, x2 = 0.0456 | 724.03 ± 0.34
313.18 K, 14000 kPa, x2 = 0.7524 | 681.18 ± 0.38
313.18 K, 15000 kPa, x2 = 0.0456 | 724.78 ± 0.35
313.18 K, 15000 kPa, x2 = 0.7524 | 682.08 ± 0.38
313.18 K, 16000 kPa, x2 = 0.0456 | 725.51 ± 0.35
313.18 K, 16000 kPa, x2 = 0.7524 | 682.96 ± 0.39
313.18 K, 17000 kPa, x2 = 0.0456 | 726.24 ± 0.36
313.18 K, 17000 kPa, x2 = 0.7524 | 683.82 ± 0.4
313.18 K, 18000 kPa, x2 = 0.0456 | 726.96 ± 0.37
313.18 K, 18000 kPa, x2 = 0.7524 | 684.65 ± 0.41
313.18 K, 19000 kPa, x2 = 0.0456 | 727.67 ± 0.38
313.18 K, 19000 kPa, x2 = 0.7524 | 685.47 ± 0.42
313.18 K, 20000 kPa, x2 = 0.0456 | 728.36 ± 0.38
313.18 K, 20000 kPa, x2 = 0.7524 | 686.29 ± 0.43
313.18 K, 21000 kPa, x2 = 0.0456 | 729.05 ± 0.39
313.18 K, 21000 kPa, x2 = 0.7524 | 687.07 ± 0.44
313.18 K, 22000 kPa, x2 = 0.0456 | 729.74 ± 0.4
